Read-outs that look alike come from different tables or passages of the source.
Legend:
[1] = tested on: carcinosarcoma of the uterus; conditions: single agent; cited from earlier work
[2] = tested on: carcinosarcoma of the uterus; conditions: cited from earlier work
[3] = tested on: carcinosarcoma of the uterus; conditions: cited from earlier work; remark: listed apart in the source
advanced solid tumors = test: Phase 1b study of BA in combination with chemotherapy, clinical response via RECIST; assay type: in vivo, human; conditions: number of subjects; chemotherapy in combination with BA
Procedure: The protocol has been amended to evaluate BA in combination with chemotherapy in specific tumor types.
BA plus cytotoxic chemotherapy (CTX)
BA Dosing: • Twice weekly; i.v. infusion • Standard 3+3 design for BA dose escalation • Dose levels studied: 2.0, 2.8, 4.0, 5.6, 8.0, and up to 11.2 mg/kg
Clinical response via RECIST every 2 cycles
Subjects— 18 years old with a refractory, advanced solid tumor, ECOG PS of <=2, and adequate hematological, renal, and hepatic function
No restriction on number of prior chemotherapeutic regimens

[4] = tested on: persistent or recurrent nonsquamous cell carcinoma of the cervix; conditions: cited from earlier work
[5] = tested on: advanced or recurrent endometrial cancer; conditions: single agent; cited from earlier work
[6] = tested on: advanced endometrial cancer; conditions: of 29 patients enrolled; preliminary data analysis; cited from earlier work
[7] = tested on: panel of 63 other kinases, including native c-Abl; conditions: cited from earlier work
[8] = tested on: cells not expressing Bcr-Abl; conditions: cited from earlier work
endometrial carcinoma = conditions: cited from earlier work

For COc1cc([C@@H]2c3cc4c(cc3[C@@H](O[C@@H]3O[C@@H]5CO[C@@H](C)O[C@H]5[C@H](O)[C@H]3O)[C@H]3COC(=O)[C@H]23)OCO4)cc(OC)c1O [etoposide], the response rate [1] is given as 6.5%.

In the case of O=P1(NCCCl)OCCCN1CCCl (centres unmarked) [ifosfamide], the response rate [1] is given as 32.2%, the median progression-free survival ([2]; p=0.02) is given as 4 months and the median survival ([2]; p=0.07) is given as 7.6 months. For the same molecule, the response rate ([2]; randomized phase III trial) was 36%, the median progression-free survival ([3]; p=0.03) was 3.6 months and the median survival ([3]; p=0.03) was 8.4 months. The response rate ([3]; second randomized trial) was 29% and the toxicity ([3]; use of ifosfamide) was “significant toxicity”.

In the case of CC[C@@]1(O)C(=O)OCc2c1cc1n(c2=O)Cc2cc3c(CN(C)C)c(O)ccc3nc2-1 [topotecan], the “CR + PR” value (advanced solid tumors) is given as 1 and the response rate [1] is given as 10%.

In the case of N.N.[Cl][Pt][Cl] [cisplatin], the response rate [1] is listed as 18%.

For CC/C(=C(\c1ccccc1)c1ccc(OCCN(C)C)cc1)c1ccccc1 [tamoxifen], the complete responses ([4]; 27 evaluable for response) is listed as “one”, the partial responses ([4]; 27 evaluable for response) is listed as “two” and the “grades 3 and 4 adverse effects reported” value ([4]; 32 patients evaluable for adverse effects) is listed as “six”. The “antitumor activity, conclusion” value ([4]; in vivo) was “minimal activity” and the objective response rate ([4]; tamoxifen citrate 10 mg orally twice a day, 27 evaluable for response) was 11.1%.

With Nc1ccn(C2OC(CO)C(O)C2(F)F)c(=O)n1 (centres unmarked) [Gemcitabine, 4-amino-1-[3,3-difluoro-4-hydroxy-5-(hydroxymethyl)tetrahydrofuran-2-yl]-1H-pyrimidin-2-one] the “CR + PR” value (advanced solid tumors) was 3.

In the case of CC(=O)O[C@H]1C(=O)[C@@]2(C)[C@H]([C@H](OC(=O)c3ccccc3)[C@]3(O)C[C@H](OC(=O)[C@H](O)[C@@H](NC(=O)c4ccccc4)c4ccccc4)C(C)=C1C3(C)C)[C@]1(OC(C)=O)CO[C@@H]1C[C@@H]2O [paclitaxel], the response rate [1] is given as 18.2% and the response rate [5] is given as 36%.

In the case of Cn1nnc2c(C(N)=O)ncn2c1=O [Temozolomide, temozolomide], the “CR + PR” value (advanced solid tumors) is reported as 1.

For COc1cc2ncnc(Nc3ccc(F)c(Cl)c3)c2cc1OCCCN1CCOCC1 [ZD1839, gefitinib], the “patients with complete response” value [6] is listed as 1 patient and the “patients with stable disease at 6 months” value [6] is listed as “several”.

In the case of NC(=O)c1cccc(-c2cc(Nc3ccc(OC(F)(F)F)cc3)ncn2)c1 [GNF-2], the “inhibition of a panel of 63 other kinases” value [7] is given as “does not inhibit” and the “toxicity towards cells not expressing Bcr-Abl” value [8] is given as “complete lack of toxicity”.

In the case of COc1cccc2c1C(=O)c1c(O)c3c(c(O)c1C2=O)C[C@@](O)(C(=O)CO)C[C@@H]3O[C@H]1C[C@H](N)[C@H](O)[C@H](C)O1 [doxorubicin], the response rate [1] is listed as 9.8%, the “response rate (RR)” value (endometrial carcinoma; doxorubicin 60 mg/m^2, cisplatin 50 mg/m^2, p=0.004) is listed as 25% and the PFS (endometrial carcinoma; in vivo) is listed as 3.8 months. The OS (endometrial carcinoma; no difference observed) was 9 months.
